Test results from patent publication US6570004B1 (priority 1996, dated 2003).

System: dapE- H. pylori mutant
Format: cell-based, Helicobacter pylori

Compound: N[C@H](CCC[C@H](N)C(=O)O)C(=O)O [DAP, diaminopimelic acid]
- Minimum DAP concentration required for survival of the dapE− mutant: 0.2 mM
